This note sets out measurements from patent US20020058072A1, “Use of iodide salt as an aphrodisiac” (priority 2000, published 2002).

For the assay, the system named is human. Briefly: Oral administration to an adult human: aphrodisiac effect and increased vaginal lubrication. The conditions noted are these: 3 ml of 5M sodium iodide in water added to 20 ml lemon juice plus 1 tbsp sugar; patient. The class given is in vivo. The text has this:
The terms “aphrodisiac” or “heightened sexual desire”, for the purposes of the present invention, refer to the following physical manifestations including clitoral swelling, nipple erection, contraction of the vaginal musculature, and a general tingling sensation.
Specifically, after oral administration of an iodide salt, the subject experienced increased vaginal lubrication. The term “increased vaginal lubrication”, as used herein, refers to an increased amount of transudate present in the vagina above the amount of transudate present in the vagina above the amount of transudate present in the unstimulated state.
The syrup was administered orally to a human, weighing approximately 165 pounds. About 0.5 to 3.0 teaspoons of the hydriodic acid syrup was admixed with approximately 8 ounces of tap water and then ingested.
To 20 ml of lemon juice are added 3 ml of a 5M solution of sodium iodide in water, and 1 tbsp of sugar is added to the resultant solution.

Consider `[I-].[Na+]` [sodium iodide], for which the “reaction observed after administration (arousal, vaginal lubrication)” value is “arousal and increased vaginal lubrication”.
